Measurements from patent publication US20240270821A1, “GIP/GLP1/GCG TRI-RECEPTOR AGONISTS AND USES THEREOF” (priority 2023, published 2024).
Like-named read-outs stand apart in the source and are kept apart here. Starred links: 1 amine or outer side, 2 acyl side, 3 side chain; linkers in the order of their positions; H or OH if unused. Non-standard residues stand in square brackets, D forms with d. Residues, ends and D or L forms follow the SMILES beside them. Groups on a side chain read outwards from the residue. No end group written: not given here. *: point of attachment. C20 diacid = O=C(O)CCCCCCCCCCCCCCCCCCC(=O)*; C18 diacid = O=C(O)CCCCCCCCCCCCCCCCC(=O)*; αMePhe(2-F) = C[C@](N)(Cc1ccccc1F)C(=O)O; γGlu = O=C(O)[C@H](CCC(=O)[*:2])N[*:1]; αMe4Pal = C[C@](N)(Cc1ccncc1)C(=O)O; αMeY = C[C@](N)(Cc1ccc(O)cc1)C(=O)O; 4Pal = N[C@@H](Cc1ccncc1)C(=O)O; αMeL = CC(C)C[C@](C)(N)C(=O)O; αMeS = C[C@](N)(CO)C(=O)O; Orn = NCCC[C@H](N)C(=O)O; AEEA = NCCOCCOCC(=O)O; Aib = CC(C)(N)C(=O)O

Assays:
Format in all cases: cell-based
human GcgR = human GcgR (Homo sapiens, UniProt P47871); test: Functional cAMP activity in the presence of 1% HSA; settings: read-out: cAMP Rel EC50, hGcgR
hGLP-1R [1] = target: T1, hGLP-1R (Homo sapiens, UniProt P43220); test: Functional cAMP activity in the presence of 1% HSA; settings: read-out: cAMP Rel EC50, hGLP-1R
hGcgR = hGcgR (Homo sapiens, UniProt P47871); test: Functional cAMP activation in the presence of 0.1% casein (no HSA); settings: read-out: Relative cAMP EC50, hGcgR;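 further: intracellular cAMP rise after 30 min at 37 °C, read by HTRF against a cAMP standard curve, scaled from buffer only (0%) to maximal control ligand response (100%)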
hGIPR [2] = target: T2, hGIPR (Homo sapiens, UniProt P48546); test: as above; settings: read-out: Relative cAMP EC50, hGIPR;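 further: intracellular cAMP rise after 30 min at 37 °C read by HTRF against a standard curve, scaled between buffer alone (0%) and top control ligand concentration (100%), four-parameter fit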
T2 sequence (P48546 22-466): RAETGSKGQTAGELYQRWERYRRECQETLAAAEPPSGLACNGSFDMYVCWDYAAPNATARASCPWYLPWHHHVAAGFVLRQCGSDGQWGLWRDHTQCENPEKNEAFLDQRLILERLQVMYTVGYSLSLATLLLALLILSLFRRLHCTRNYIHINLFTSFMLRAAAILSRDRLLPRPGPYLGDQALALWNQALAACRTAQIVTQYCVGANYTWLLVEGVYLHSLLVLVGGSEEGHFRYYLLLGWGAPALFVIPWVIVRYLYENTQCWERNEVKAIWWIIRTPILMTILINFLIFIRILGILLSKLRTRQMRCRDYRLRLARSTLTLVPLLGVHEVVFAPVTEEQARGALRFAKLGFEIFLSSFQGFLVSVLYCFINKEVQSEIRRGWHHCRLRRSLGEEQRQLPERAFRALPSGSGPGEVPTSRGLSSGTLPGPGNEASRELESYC

hGIPR [3] = target: T2, hGIPR; test: Functional cAMP activity in the presence of 1% HSA; settings: read-out: cAMP Rel EC50, hGIPR
hGLP-1R [4] = target: T1, hGLP-1R; test: Functional cAMP activation in the presence of 0.1% casein (no HSA); settings: read-out: Relative cAMP EC50, hGLP-1R;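 on Relative cAMP EC50, hGIPR: intracellular cAMP rise after 30 min at 37 °C read by HTRF against a standard curve, scaled between buffer alone (0%) and top control ligand concentration (100%), four-parameter fit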;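 on Relative cAMP EC50, hGLP-1R: intracellular cAMP rise after 30 min at 37 °C read by HTRF, normalized between buffer only (0%) and maximal control ligand (100%), four-parameter variable-slope fit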
[5] = 0.1% casein, no HSA, geometric mean
[6] = in the presence of 0.1% casein (no HSA), geometric mean
[7] = HEK-293 clonal cell line, in the presence of 1% HSA, geometric mean of relative EC50

T1 sequence (P43220 24-463): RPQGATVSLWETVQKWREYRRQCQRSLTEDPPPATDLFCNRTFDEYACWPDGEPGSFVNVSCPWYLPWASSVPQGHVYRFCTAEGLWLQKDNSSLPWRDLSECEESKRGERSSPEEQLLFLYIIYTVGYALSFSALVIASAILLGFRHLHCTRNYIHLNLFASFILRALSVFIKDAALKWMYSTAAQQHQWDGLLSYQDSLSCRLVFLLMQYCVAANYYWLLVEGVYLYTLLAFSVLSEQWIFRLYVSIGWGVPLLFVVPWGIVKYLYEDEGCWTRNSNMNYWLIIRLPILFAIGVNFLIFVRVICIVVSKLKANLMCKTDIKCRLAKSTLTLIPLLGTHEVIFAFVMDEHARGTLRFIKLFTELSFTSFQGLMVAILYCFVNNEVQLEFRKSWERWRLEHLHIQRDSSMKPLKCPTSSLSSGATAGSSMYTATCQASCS
hGcgR, sequence (P47871 26-477): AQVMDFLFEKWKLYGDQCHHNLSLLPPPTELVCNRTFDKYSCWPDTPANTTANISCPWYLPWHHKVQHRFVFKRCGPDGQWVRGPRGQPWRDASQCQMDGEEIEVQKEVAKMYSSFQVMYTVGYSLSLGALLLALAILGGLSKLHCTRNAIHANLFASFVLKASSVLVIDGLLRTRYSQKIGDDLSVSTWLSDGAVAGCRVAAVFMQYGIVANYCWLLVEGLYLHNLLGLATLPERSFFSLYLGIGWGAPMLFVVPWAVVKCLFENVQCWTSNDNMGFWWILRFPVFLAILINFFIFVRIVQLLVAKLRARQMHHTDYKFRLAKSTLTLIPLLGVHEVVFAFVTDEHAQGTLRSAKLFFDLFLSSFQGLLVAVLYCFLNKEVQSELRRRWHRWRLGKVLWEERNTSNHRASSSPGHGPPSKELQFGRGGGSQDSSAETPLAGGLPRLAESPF
human GcgR, sequence (P47871 26-477): as above

Compound | EC50 (human GcgR) | EC50 (hGLP-1R [1]) | EC50 (hGcgR) | EC50 (hGIPR [2]) | EC50 (hGIPR [3]) | EC50 (hGLP-1R [4]) | EC50 (hGcgR; [5]) | EC50 (hGIPR [2]; [5]) | EC50 (hGLP-1R [4]; [5]) | EC50 (hGcgR; [6]) | EC50 (hGIPR [2]; [6]) | EC50 (hGLP-1R [4]; [6]) | EC50 (human GcgR; [7]) | EC50 (hGLP-1R [1]; [7]) | EC50 (hGIPR [3]; [7])
H-Y[Aib]QGT[αMePhe(2-F)]TSD[4Pal]SILLDKK([γGlu-γGlu-C18 diacid])AQ[Aib]AFIE[4Pal]LEEGGPSSGAPPPSGTE-NH2 [Example 550] | 996 nM | 262 nM | 11.7 nM | 0.0876 nM | 5.94 nM | 2.12 nM |  |  |  |  |  |  |  |  | 
H-Y[Aib]QGT[αMePhe(2-F)]TSD[4Pal][αMeS]I[αMeL]LD[Orn]K([γGlu-γGlu-C18 diacid])AQ[αMe4Pal]EFI[dE][αMeY]LIEGGPSSGAPPPEGGGEE-NH2 [Example 1220] | 168 nM | 48.5 nM |  |  | 0.609 nM |  | 1.57 nM | 0.0099 nM | 0.674 nM |  |  |  |  |  | 
Y[Aib]QGT[αMePhe(2-F)]TSD[4Pal][αMeS]I[αMeL]LD[Orn][Orn]([AEEA-γGlu-C18 diacid])AQ[αMe4Pal]EFI[dE][αMeY]LVEGGPSSGAPPPSGS-NH2 [Example 1210] | 288 nM | 38.1 nM |  |  | 0.635 nM |  | 2.25 nM | 0.00704 nM | 0.375 nM |  |  |  |  |  | 
H-Y[Aib]QGT[αMePhe(2-F)]TSD[4Pal][αMeS]I[αMeL]LD[Orn]K([AEEA-γGlu-γGlu-C18 diacid])AQ[αMe4Pal]EFI[dE][αMeY]LIEGGPSSGAPPPSGSE-NH2 [Example 1178] | 270 nM | 39 nM |  |  | 0.544 nM |  |  |  |  | 3.08 nM | 0.00913 nM | 0.437 nM |  |  | 
H-Y[Aib]QGT[αMePhe(2-F)]TSD[4Pal]SILLDKK([γGlu-γGlu-C18 diacid])AQ[Aib]AFIEYLEEGGPSSGAPPPEGTE-NH2 [Example 659] | 735 nM | 81.5 nM | 5.89 nM | 0.0673 nM | 5.75 nM | 1.31 nM |  |  |  |  |  |  |  |  | 
Y[Aib]QGT[αMePhe(2-F)]TSD[4Pal]SI[αMeL]LD[Orn]K([AEEA-γGlu-C18 diacid])AQ[αMe4Pal]EFI[dE][αMeY]LIEGGPSSGAPPPSGE-NH2 [Example 614] | 724 nM | 33.2 nM | 6.36 nM | 0.0065 nM | 0.597 nM | 0.251 nM |  |  |  |  |  |  |  |  | 
CC[C@H](C)[C@H](NC(=O)[C@H](Cc1ccccc1)NC(=O)[C@H](C)NC(=O)C(C)(C)NC(=O)[C@H](CCC(N)=O)NC(=O)[C@H](C)NC(=O)[C@H](CCCCNC(=O)COCCOCCNC(=O)CC[C@H](NC(=O)CCCCCCCCCCCCCCCCC(=O)O)C(=O)O)NC(=O)[C@H](CCCN)NC(=O)[C@H](CC(=O)O)NC(=O)[C@H](CC(C)C)NC(=O)[C@](C)(CC(C)C)NC(=O)[C@@H](NC(=O)[C@](C)(CO)NC(=O)[C@H](Cc1ccncc1)NC(=O)[C@H](CC(=O)O)NC(=O)[C@H](CO)NC(=O)[C@@H](NC(=O)[C@](C)(Cc1ccccc1F)NC(=O)[C@@H](NC(=O)CNC(=O)[C@H](CCC(N)=O)NC(=O)C(C)(C)NC(=O)[C@@H](N)Cc1c[nH]cn1)[C@@H](C)O)[C@@H](C)O)[C@@H](C)CC)C(=O)N[C@H](CCC(=O)O)C(=O)N[C@@H](Cc1ccc(O)cc1)C(=O)N[C@@H](CC(C)C)C(=O)N[C@@H](CC(C)C)C(=O)N[C@@H](CCC(=O)O)C(=O)NCC(=O)NCC(=O)N1CCC[C@H]1C(=O)N[C@@H](CO)C(=O)N[C@@H](CO)C(=O)NCC(=O)N[C@@H](CCC(=O)O)C(=O)N1CCC[C@H]1C(=O)N[C@@H](CCC(=O)O)C(=O)N1CCC[C@H]1C(=O)N[C@@H](CCC(=O)O)C(N)=O [Example 479] (H-H[Aib]QGT[αMePhe(2-F)]TSD[4Pal][αMeS]I[αMeL]LD[Orn]K([AEEA-γGlu-C18 diacid])AQ[Aib]AFI[dE]YLLEGGPSSGEPEPE-NH2) | 432 nM | 23.5 nM | 5.98 nM | 0.0905 nM | 7.11 nM | 0.314 nM |  |  |  |  |  |  |  |  | 
H-Y[Aib]QGT[αMePhe(2-F)]TSD[4Pal]SILLD[Orn]K([γGlu-γGlu-C18 diacid])AQ[αMe4Pal][Orn]FI[dE]YLIEGGPSSGEPPPSGTEE-NH2 [Example 584] | 497 nM | 137 nM | 5.29 nM | 0.0461 nM | 5.5 nM | 1 nM |  |  |  |  |  |  |  |  | 
H-Y[Aib]QGT[αMePhe(2-F)]TSD[4Pal][αMeS]ILLD[Orn]K([γGlu-γGlu-C18 diacid])AQ[Aib][Orn]FI[dE][αMeY]LQEGGPSSGEPPPSGAE-NH2 [Example 547] | 237 nM | 27.7 nM | 3.8 nM | 0.152 nM | 7.26 nM | 0.337 nM |  |  |  |  |  |  |  |  | 
H-Y[Aib]QGTFTSDYSK[αMeL]LDKK([AEEA-γGlu-C20 diacid])AQQAFIEYLLAGGPSSGEPPPSGE-NH2 [Example 344] | 1440 nM | 523 nM |  |  | 70.7 nM |  |  |  |  | 9.05 nM | 0.406 nM | 2.56 nM |  |  | 
H-Y[Aib]Q[dA]T[αMePhe(2-F)]TSD[4Pal][αMeS]I[αMeL]LD[Orn]K([AEEA-γGlu-C18 diacid])AQ[Aib]EFI[dE][αMeY]LIEGGPSSGAPPPSGGGE-NH2 [Example 1223] | 472 nM | 40.7 nM |  |  | 9.25 nM |  | 2.61 nM | 0.0916 nM | 0.337 nM |  |  |  |  |  | 
CC[C@H](C)[C@H](NC(=O)[C@H](CC(C)C)NC(=O)[C@](C)(Cc1ccc(O)cc1)NC(=O)[C@@H](CCC(=O)O)NC(=O)[C@@H](NC(=O)[C@H](Cc1ccccc1)NC(=O)[C@H](CCC(=O)O)NC(=O)C(C)(C)NC(=O)[C@H](C)NC(=O)[C@H](C)NC(=O)[C@H](CCCCNC(=O)COCCOCCNC(=O)CC[C@H](NC(=O)CCCCCCCCCCCCCCCCC(=O)O)C(=O)O)NC(=O)[C@H](CCCN)NC(=O)[C@H](CC(=O)O)NC(=O)[C@H](CC(C)C)NC(=O)[C@](C)(CC(C)C)NC(=O)[C@@H](NC(=O)[C@](C)(CO)NC(=O)[C@H](Cc1ccncc1)NC(=O)[C@H](CC(=O)O)NC(=O)[C@H](CO)NC(=O)[C@@H](NC(=O)[C@](C)(Cc1ccccc1F)NC(=O)[C@@H](NC(=O)CNC(=O)[C@H](CCC(N)=O)NC(=O)C(C)(C)NC(=O)[C@@H](N)Cc1ccc(O)cc1)[C@@H](C)O)[C@@H](C)O)[C@@H](C)CC)[C@@H](C)CC)C(=O)N[C@@H](CCC(=O)O)C(=O)NCC(=O)NCC(=O)N1CCC[C@H]1C(=O)N[C@@H](CO)C(=O)N[C@@H](CO)C(=O)NCC(=O)N[C@@H](C)C(=O)N1CCC[C@H]1C(=O)N1CCC[C@H]1C(=O)N1CCC[C@H]1C(=O)N[C@@H](CO)C(=O)NCC(=O)N[C@H](C(=O)NCC(=O)N[C@@H](CCC(=O)O)C(N)=O)[C@@H](C)O [Example 689] | 182 nM | 25.1 nM | 1.81 nM | 0.0104 nM | 0.951 nM | 0.214 nM |  |  |  |  |  |  |  |  | 
Y[Aib]QGT[αMePhe(2-F)]TSD[4Pal][αMeS]I[αMeL]LD[Orn]K([γGlu-γGlu-C18 diacid])AQ[αMe4Pal]EFI[dE][αMeY]LVEGGPSSGEPPPSGSEE-NH2 [Example 740] | 181 nM | 29.7 nM | 5.34 nM | 0.012 nM | 0.629 nM | 0.453 nM |  |  |  |  |  |  |  |  | 
H-Y[Aib]QGTFTSDFS[Orn][αMeL]LD[Orn]K([γGlu-γGlu-C18 diacid])AQ[Aib]AFIE[αMe4Pal]LLEGGPSSGAPPPGGSEE-NH2 [Example 1050] |  |  |  |  |  |  |  |  |  | 6.8 nM | 0.152 nM | 7.65 nM | 2040 nM | 1240 nM | 68.5 nM
